Test system: Myzus persicae (green peach aphid)
Assay: Example B2: activity against Myzus persicae, pea seedling roots in test solution (systemic/feeding, curative)
Conditions: 144 h, read-out: activity (mortality)

**Q.** For CON1CCC2(CC1)NC(=O)C(Cl)(c1c(C)cc(C)cc1C)C2=O (stereo not drawn) [A14], which mortality at 400 ppm is on record?
**A.** > 80%

**Q.** With CON1CCC2(CC1)NC(=O)C(Cl)(c1c(C)cc(C)cc1Cl)C2=O (stereo not drawn) [A9] as the compound, how does the mortality at 400 ppm read?
**A.** > 80%

**Q.** How did the mortality at 400 ppm turn out when CON1CCC2(CC1)NC(=O)C(Cl)(c1cc(C)c(C)cc1C)C2=O (stereo not drawn) [A13] was run?
**A.** > 80%

**Q.** How did the mortality at 400 ppm turn out when CON1CCC2(CC1)NC(=O)C(Cl)(c1c(C)cc(Cl)cc1C)C2=O (stereo not drawn) [A5] was run?
**A.** > 80%

Test system: Myzus persicae (green peach aphid)
Assay: Example B1: activity against Myzus persicae, sprayed sunflower leaf discs (feeding/residual contact, preventive)
Conditions: foliar, 144 h, read-out: activity (mortality)

**Q.** With CON1CCC2(CC1)NC(=O)C(Cl)(c1c(C)cc(C)cc1C)C2=O (stereo not drawn) [A14] as the compound, how does the mortality at 400 ppm read?
**A.** > 80%

**Q.** With CON1CCC2(CC1)NC(=O)C(Cl)(c1c(C)cc(C)cc1Cl)C2=O (stereo not drawn) [A9] as the compound, how does the mortality at 400 ppm read?
**A.** > 80%

**Q.** With CON1CCC2(CC1)NC(=O)C(Cl)(c1cc(C)c(C)cc1C)C2=O (stereo not drawn) [A13] as the compound, how does the mortality at 400 ppm read?
**A.** > 80%

**Q.** How did the mortality at 400 ppm turn out when CON1CCC2(CC1)NC(=O)C(Cl)(c1c(C)cc(Cl)cc1C)C2=O (stereo not drawn) [A5] was run?
**A.** > 80%

Test system: Aphis Craccivora (cowpea aphid)
Assay: Example B15: activity against Aphis craccivora, pea seedling roots in test solution (systemic/feeding)
Type: in vivo
Conditions: 144 h, roots of infested pea seedlings in test solution, 6 days
Excerpt: Activity Against Aphis Craccivora (Cowpea Aphid)
(Mixed Population, Systemic/Feeding)
6 days later, samples are checked for mortality. In this test, compounds listed in Table A above show good activity. For example compounds A8, A9, A13 and A14 show an activity of over 80% at a concentration of 25 ppm.

**Q.** How did the mortality at 25 ppm turn out when CON1CCC2(CC1)NC(=O)C(Cl)(c1c(C)cc(C)cc1C)C2=O (stereo not drawn) [A14] was run?
**A.** > 80%

**Q.** How did the mortality at 25 ppm turn out when CON1CCC2(CC1)NC(=O)C(Cl)(c1c(C)cc(C)cc1Cl)C2=O (stereo not drawn) [A9] was run?
**A.** > 80%

**Q.** How did the mortality at 25 ppm turn out when CON1CCC2(CC1)NC(=O)C(Cl)(c1cc(C)c(C)cc1C)C2=O (stereo not drawn) [A13] was run?
**A.** > 80%

Test system: Aphis Craccivora (cowpea aphid)
Assay: Example B9: translaminar activity against Aphis craccivora on French bean leaves
Type: in vivo
Conditions: 120 h, upper leaf side painted, aphids on lower side, 5 days
Protocol: Translaminar Activity Against Aphis Craccivora (Cowpea Aphid)
French bean leaves (Phaseolus vulgaris) are infested with about 20 mixed age individuals on the lower leaf side using clip cages. 1 day after the infestation, the upper side of the leaves is treated with the test solution by painting. 5 days later, samples are checked for mortality.

**Q.** Which mortality at 400 ppm does the source give for CON1CCC2(CC1)NC(=O)C(Cl)(c1c(C)cc(C)cc1C)C2=O (stereo not drawn) [A14] here?
**A.** > 80%

**Q.** With CON1CCC2(CC1)NC(=O)C(Cl)(c1c(C)cc(C)cc1Cl)C2=O (stereo not drawn) [A9] as the compound, how does the mortality at 400 ppm read?
**A.** > 80%

**Q.** Which mortality at 400 ppm does the source give for CON1CCC2(CC1)NC(=O)C(Cl)(c1cc(C)c(C)cc1C)C2=O (stereo not drawn) [A13] here?
**A.** > 80%

Test system: Tetranychus urticae (two-spotted spider mite)
Assay: Example B3: activity against Tetranychus urticae, sprayed bean leaf discs (feeding/residual contact, preventive)
Type: in vivo
Conditions: foliar, 192 h, mixed population, 8 days, read-out: activity (egg, larval and adult mortality)
Excerpt: Activity Against Tetranychus urticae (Two-Spotted Spider Mite)
(Mixed Population, Feeding/Residual Contact Activity, Preventive)
Bean leaf discs on agar in 24-well microtiter plates are sprayed with test solutions. […] 8 days later, discs are checked for egg mortality, larval mortality, and adult mortality. In this test, compounds listed in the Table A above show good activity. In particular compounds A1, A4, A5, A7, A8, A9, A10, A11, A12, A13 and A14 show an activity of over 80% at a concentration of 400 ppm.

**Q.** How did the mortality at 400 ppm turn out when CON1CCC2(CC1)NC(=O)C(Cl)(c1c(C)cc(C)cc1C)C2=O (stereo not drawn) [A14] was run?
**A.** > 80%

**Q.** With CON1CCC2(CC1)NC(=O)C(Cl)(c1c(C)cc(C)cc1Cl)C2=O (stereo not drawn) [A9] as the compound, how does the mortality at 400 ppm read?
**A.** > 80%

**Q.** CON1CCC2(CC1)NC(=O)C(Cl)(c1cc(C)c(C)cc1C)C2=O (stereo not drawn) [A13] was tested. Which mortality at 400 ppm did it give?
**A.** > 80%

**Q.** How did the mortality at 400 ppm turn out when CON1CCC2(CC1)NC(=O)C(Cl)(c1c(C)cc(Cl)cc1C)C2=O (stereo not drawn) [A5] was run?
**A.** > 80%

Test system: Nilaparvata lugens (brown rice planthopper)
Assay: Example B8: activity against Nilaparvata lugens, larvicide on rice seedlings (feeding/contact)
Type: in vivo
Conditions: sprayed rice seedlings, N3 nymphs, 6-12 days, read-out: activity (mortality, growth regulation, effects on F1 generation)
Protocol: Activity Against Nilaparvata lugens (Brown Rice Planthopper)
(Larvicide, Feeding/Contact)
Rice seedlings are treated with the diluted test solutions in a spray chamber. After drying, they are infested with 20 N3 nymphs (2 replicates). 6-12 days after the treatment samples are checked for mortality, growth regulation, and effects on the F1 generation. In this test, compounds listed in the Table A above show good activity. For example compounds A1, A2, A4, A7, A8, A9, A13 and A14 show an activity of over 80% at a concentration of 400 ppm.

**Q.** With CON1CCC2(CC1)NC(=O)C(Cl)(c1c(C)cc(C)cc1C)C2=O (stereo not drawn) [A14] as the compound, how does the mortality at 400 ppm read?
**A.** > 80%

**Q.** For CON1CCC2(CC1)NC(=O)C(Cl)(c1c(C)cc(C)cc1Cl)C2=O (stereo not drawn) [A9], which mortality at 400 ppm is on record?
**A.** > 80%

**Q.** Which mortality at 400 ppm does the source give for CON1CCC2(CC1)NC(=O)C(Cl)(c1cc(C)c(C)cc1C)C2=O (stereo not drawn) [A13] here?
**A.** > 80%

Test system: Thrips tabaci (onion thrips)
Assay: Example B4: activity against Thrips tabaci, sprayed sunflower leaf discs (feeding/residual contact, preventive)
Conditions: foliar, 144 h, read-out: activity (mortality)

**Q.** Which mortality at 400 ppm does the source give for CON1CCC2(CC1)NC(=O)C(Cl)(c1c(C)cc(C)cc1C)C2=O (stereo not drawn) [A14] here?
**A.** > 80%

**Q.** Which mortality at 400 ppm does the source give for CON1CCC2(CC1)NC(=O)C(Cl)(c1c(C)cc(C)cc1Cl)C2=O (stereo not drawn) [A9] here?
**A.** > 80%

**Q.** Which mortality at 400 ppm does the source give for CON1CCC2(CC1)NC(=O)C(Cl)(c1cc(C)c(C)cc1C)C2=O (stereo not drawn) [A13] here?
**A.** > 80%

**Q.** For CON1CCC2(CC1)NC(=O)C(Cl)(c1c(C)cc(Cl)cc1C)C2=O (stereo not drawn) [A5], which mortality at 400 ppm is on record?
**A.** > 80%

Test system: Myzus persicae (green peach aphid)
Assay: Example B12: activity against Myzus persicae on sprayed pepper plants (feeding/residual contact)
Type: in vivo
Conditions: 144 h, 6 days

**Q.** For CON1CCC2(CC1)NC(=O)C(Cl)(c1cc(C)c(C)cc1C)C2=O (stereo not drawn) [A13], which mortality at 200 ppm is on record?
**A.** ≥ 80%

**Q.** For CON1CCC2(CC1)NC(=O)C(Cl)(c1c(C)cc(Cl)cc1C)C2=O (stereo not drawn) [A5], which mortality at 200 ppm is on record?
**A.** ≥ 80%

Test system: pepper plants
Assay: Example B12: plant damage evaluation (phytotoxicity) on sprayed pepper plants
Conditions: in vivo, 6 days, 200 ppm

**Q.** How did the “damage to pepper plants (phytotoxicity, 0-100% rating scale)” value turn out when CON1CCC2(CC1)NC(=O)C(Cl)(c1cc(C)c(C)cc1C)C2=O (stereo not drawn) [A13] was run?
**A.** ≤ 10%

**Q.** For CON1CCC2(CC1)NC(=O)C(Cl)(c1c(C)cc(Cl)cc1C)C2=O (stereo not drawn) [A5], which “damage to pepper plants (phytotoxicity, 0-100% rating scale)” value is on record?
**A.** ≤ 10%

Test system: Diabrotica balteata (corn root worm)
Assay: Example B5: activity against Diabrotica balteata, larvicide on artificial diet in microtiter plate
Type: in vivo
Conditions: 120 h, L2 larvae, 5 days, read-out: activity (larval mortality, antifeedant, growth regulation)
Protocol: Activity Against Diabrotica balteata (Corn Root Worm)
(Larvicide, Feeding/Residual Contact Activity, Preventive)
24-well microtiter plate (MTP) with artificial diet is treated with test solutions by pipetting. After drying, the MTP's are infested with larvae (L2)(6-10 per well). After an incubation period of 5 days, samples are checked for larval mortality, antifeedant and growth regulation.

**Q.** For CON1CCC2(CC1)NC(=O)C(Cl)(c1cc(C)c(C)cc1C)C2=O (stereo not drawn) [A13], which mortality at 400 ppm is on record?
**A.** > 80%
